Measured values taken from article PMC3117126 (Journal of medicinal chemistry, 2011).
Counter-ions that a name gives are not always drawn. Values belong to the compound of their own block, whether it stands above or below them.

Experiments:
human P2Y4 receptor [1] = target: T1, human P2Y4 receptor (Homo sapiens, UniProt P51582); conditions: cited from earlier work
[2] = Chemical stability: hydrolysis at 37°C and pH 1.5, HPLC; format: physicochemical; conditions: pH 1.5, 0.2 mg/mL, compared with 1 (UTP)
human P2Y4 receptor [3] = target: T1, human P2Y4 receptor; test: PLC activation; format: cell-based; conditions: for selectivity for human P2Y4 over P2Y2 and P2Y6 receptors: over both P2Y2 and P2Y6
human P2Y2 receptor = human P2Y2 receptor (Homo sapiens, UniProt P41231); test: PLC activation; format: cell-based; conditions: for effect at 10 µM, hP2Y2: printed in EC50 column, NE = no effect at 10 µM
Sequence of human P2Y2 receptor (P41231 whole entry): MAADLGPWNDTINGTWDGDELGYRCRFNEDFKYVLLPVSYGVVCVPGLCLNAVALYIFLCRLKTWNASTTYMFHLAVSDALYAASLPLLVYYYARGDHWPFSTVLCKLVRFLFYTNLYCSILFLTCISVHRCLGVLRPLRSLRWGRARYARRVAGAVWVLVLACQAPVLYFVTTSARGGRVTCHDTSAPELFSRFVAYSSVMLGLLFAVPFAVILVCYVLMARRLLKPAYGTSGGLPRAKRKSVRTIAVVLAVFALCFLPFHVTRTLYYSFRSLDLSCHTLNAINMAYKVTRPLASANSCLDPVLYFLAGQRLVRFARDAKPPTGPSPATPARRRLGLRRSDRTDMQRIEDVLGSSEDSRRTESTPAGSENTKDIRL

T1 sequence (P51582 whole entry): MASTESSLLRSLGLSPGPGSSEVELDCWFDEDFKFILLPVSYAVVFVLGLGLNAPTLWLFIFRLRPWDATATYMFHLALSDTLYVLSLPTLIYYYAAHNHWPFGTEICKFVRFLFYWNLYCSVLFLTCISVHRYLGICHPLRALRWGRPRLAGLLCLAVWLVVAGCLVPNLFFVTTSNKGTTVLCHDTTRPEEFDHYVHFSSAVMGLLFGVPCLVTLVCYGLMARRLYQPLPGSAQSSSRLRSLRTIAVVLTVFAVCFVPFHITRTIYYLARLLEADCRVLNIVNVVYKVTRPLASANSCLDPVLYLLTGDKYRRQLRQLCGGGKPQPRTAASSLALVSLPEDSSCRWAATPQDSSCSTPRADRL

Compound: [N-]=[N+]=N[C@@H]1[C@H](O)[C@@H](COP(=O)(O)OP(=O)(O)OP(=O)(O)O)O[C@H]1n1ccc(=O)[nH]c1=O [Compound 3]
selectivity for the P2Y4 receptor in comparison to the P2Y2 receptor (human P2Y4 receptor [1]): 5 fold

Compound: O=c1ccn([C@@H]2O[C@H](COP(=O)(O)OP(=O)(O)OP(=O)(O)OP(=O)(O)O[C@H]3O[C@H](CO)[C@@H](O)[C@H](O)[C@H]3O)[C@@H](O)[C@H]2O)c(=O)[nH]1 [Compound 8, Up4-[1]glucose, reference compound]
stability at pH 1.5 [2]: less stable at pH 1.5 than 1

Compound: COc1ccc(OP(=O)(O)OP(=O)(O)OP(=O)(O)OP(=O)(O)OC[C@H]2O[C@@H](n3ccc(=O)[nH]c3=O)[C@H](O)[C@@H]2O)cc1 [Compound 22, Uridine-5′-(4-methoxyphenyl)-tetraphosphate triethylammonium salt]
effect at 10 µM, hP2Y2 (human P2Y2 receptor): ≤50% at 10 µM

Compound: COc1cccc(OP(=O)(O)OP(=O)(O)OP(=O)(O)OP(=O)(O)OC[C@H]2O[C@@H](n3ccc(=O)[nH]c3=O)[C@H](O)[C@@H]2O)c1 [Compound 23, Uridine-5′-(3-methoxyphenyl)-tetraphosphate triethylammonium salt]
effect at 10 µM, hP2Y2 (human P2Y2 receptor): ≤50% at 10 µM

Compound: O=c1ccn([C@@H]2O[C@H](COP(=O)(O)OP(=O)(O)OP(=O)(O)OP(=O)(O)Oc3ccc([N+](=O)[O-])cc3)[C@@H](O)[C@H]2O)c(=O)[nH]1 [Compound 24, Uridine-5′-(4-nitrophenyl)-tetraphosphate triethylammonium salt]
effect at 10 µM, hP2Y2 (human P2Y2 receptor): abolished activity

Compound: O=c1ccn([C@@H]2O[C@H](COP(=O)(O)OP(=O)(O)C(Cl)(Cl)P(=O)(O)OP(=O)(O)O[C@H]3O[C@H](CO)[C@@H](O)[C@H](O)[C@H]3O)[C@@H](O)[C@H]2O)c(=O)[nH]1 [Compound 26, Uridine-5′-glucose-1′-β,γ-dichloromethylene tetraphosphate triethylammonium salt]
effect at 10 µM, hP2Y2 (human P2Y2 receptor): ≤50% at 10 µM

Compound: O=c1ccn([C@@H]2O[C@H](COP(=O)(O)OP(=O)(O)OP(=O)(O)OP(=O)(O)O[C@H]3O[C@H](CO)[C@@H](O)[C@H](F)[C@H]3O)[C@@H](O)[C@H]2O)c(=O)[nH]1 [Compound 34, P^1-(Uridine-5′-)P^4-(3′-deoxy-3′-fluoroglucose-1′-)tetraphosphate triethylammonium salt]
stability at pH 1.5 [2]: much more labile
selectivity for human P2Y4 over P2Y2 and P2Y6 receptors (human P2Y4 receptor [3]): ≥ 10 fold

Further lines, results first:

selectivity for human P2Y4 over P2Y2 and P2Y6 receptors (human P2Y4 receptor [3]): ≥ 10 fold
Compound: O=c1[nH]/c(=N\OCCc2ccccc2)ccn1[C@@H]1O[C@H](COP(=O)(O)OP(=O)(O)OP(=O)(O)O)[C@@H](O)[C@H]1O [Compound 15, N^4-Phenylethoxycytidine-5′-triphosphate triethylammonium salt]

selectivity for human P2Y4 over P2Y2 and P2Y6 receptors (human P2Y4 receptor [3]): ≥ 10 fold
Compound: O=c1[nH]/c(=N\OCCCc2ccccc2)ccn1[C@@H]1O[C@H](COP(=O)(O)OP(=O)(O)OP(=O)(O)O)[C@@H](O)[C@H]1O [Compound 16, N^4-Phenylpropoxycytidine-5′-triphosphate triethylammonium salt]

increase in P2Y4 receptor potency relative to Up4-[1]glucose 8 (human P2Y4 receptor [3]; compared with 8): 11 fold
Compound: O=c1ccn([C@@H]2O[C@H](COP(=O)(O)OP(=O)(O)OP(=O)(O)OP(=O)(O)O[C@H]3O[C@H](CO)[C@@H](O)[C@@H](O)[C@H]3O)[C@@H](O)[C@H]2O)c(=O)[nH]1 [Compound 28, Uridine-5′-allose-1′-tetraphosphate triethylammonium salt]

reduction in potency at P2Y2 receptor relative to 8 (human P2Y2 receptor; fold less potent than 8): 9 fold
Compound: O=c1ccn([C@@H]2O[C@H](COP(=O)(O)OP(=O)(O)OP(=O)(O)OP(=O)(O)O[C@H]3OC[C@@H](O)[C@H](O)[C@H]3O)[C@@H](O)[C@H]2O)c(=O)[nH]1 [Compound 30, Uridine-5′-xylose-1′-tetraphosphate triethylammonium salt]
